# Results as given in paper PMC11576293, “New series of 4,6-diaryl pyrimidines: facile synthesis and antiproliferative activity as dual EGFR/VEGFR-2 inhibitors” (Frontiers in Chemistry, 2024).
# What was measured:
# Experiment in all cases: NCI-60 single-dose screen
# Format in all cases: cell-based
# EKVX = conditions: Homo sapiens, single dose 10 µM, '-' = no inhibition, read-out: % Growth Inhibition
# How it was run: (§1)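 Single concentration (10 μM) per compound, assayed by the NCI DTP against its 60-line panel covering leukemia, lung, colon, CNS, melanoma, ovarian, renal, prostate and breast cancers.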
# T-47D = conditions: Homo sapiens, T47D, single dose 10 µM, '-' = no inhibition, read-out: % Growth Inhibition
# How it was run: as §1
# MCF7 = conditions: Homo sapiens, single dose 10 µM, '-' = no inhibition, read-out: % Growth Inhibition
# How it was run: as §1
# UACC-62 = conditions: Homo sapiens, single dose 10 µM, '-' = no inhibition, read-out: % Growth Inhibition
# How it was run: as §1
# KM12 = conditions: Homo sapiens, single dose 10 µM, '-' = no inhibition, read-out: % Growth Inhibition
# How it was run: as §1
# OVCAR-5 = conditions: Homo sapiens, single dose 10 µM, '-' = no inhibition, read-out: % Growth Inhibition
# How it was run: as §1
# HT29 = conditions: Homo sapiens, HT-29, single dose 10 µM, '-' = no inhibition, read-out: % Growth Inhibition
# How it was run: as §1
# SW-620 = conditions: Homo sapiens, single dose 10 µM, '-' = no inhibition, read-out: % Growth Inhibition
# How it was run: as §1
# PC-3 = conditions: Homo sapiens, single dose 10 µM, '-' = no inhibition, read-out: % Growth Inhibition
# How it was run: as §1
# NCI-H522 = conditions: Homo sapiens, single dose 10 µM, '-' = no inhibition, read-out: % Growth Inhibition
# How it was run: as §1
# MDA-MB-468 = conditions: Homo sapiens, single dose 10 µM, '-' = no inhibition, read-out: % Growth Inhibition
# How it was run: as §1
# HS 578T = conditions: Homo sapiens, single dose 10 µM, '-' = no inhibition, read-out: % Growth Inhibition
# How it was run: as §1
# A549/ATCC = conditions: Homo sapiens, single dose 10 µM, '-' = no inhibition, read-out: % Growth Inhibition
# How it was run: as §1
# HCT-15 = conditions: Homo sapiens, single dose 10 µM, '-' = no inhibition, read-out: % Growth Inhibition
# How it was run: as §1
# HCC-2998 = conditions: Homo sapiens, single dose 10 µM, '-' = no inhibition, read-out: % Growth Inhibition
# How it was run: as §1
# RXF 393 = conditions: Homo sapiens, single dose 10 µM, '-' = no inhibition, read-out: % Growth Inhibition
# How it was run: as §1
# MALME-3M = conditions: Homo sapiens, single dose 10 µM, '-' = no inhibition, read-out: % Growth Inhibition
# How it was run: as §1
# UO-31 = conditions: Homo sapiens, single dose 10 µM, '-' = no inhibition, read-out: % Growth Inhibition
# How it was run: as §1
# TK-10 = conditions: Homo sapiens, single dose 10 µM, '-' = no inhibition, read-out: % Growth Inhibition
# How it was run: as §1
# SK-MEL-2 = conditions: Homo sapiens, single dose 10 µM, '-' = no inhibition, read-out: % Growth Inhibition
# How it was run: as §1
# U251 = conditions: Homo sapiens, U-251, single dose 10 µM, '-' = no inhibition, read-out: % Growth Inhibition
# How it was run: as §1
# IGROV1 = conditions: Homo sapiens, IGROV-1, single dose 10 µM, '-' = no inhibition, read-out: % Growth Inhibition
# How it was run: as §1
# OVCAR-3 = conditions: Homo sapiens, single dose 10 µM, '-' = no inhibition, read-out: % Growth Inhibition
# How it was run: as §1
# SF-295 = conditions: Homo sapiens, single dose 10 µM, '-' = no inhibition, read-out: % Growth Inhibition
# How it was run: as §1
# SNB-19 = conditions: Homo sapiens, single dose 10 µM, '-' = no inhibition, read-out: % Growth Inhibition
# How it was run: as §1
# RPMI-8226 = conditions: Homo sapiens, single dose 10 µM, '-' = no inhibition, read-out: % Growth Inhibition
# How it was run: as §1
# ACHN 1 = conditions: Homo sapiens, single dose 10 µM, '-' = no inhibition, read-out: % Growth Inhibition
# How it was run: as §1
# SF-539 = conditions: Homo sapiens, single dose 10 µM, '-' = no inhibition, read-out: % Growth Inhibition
# How it was run: as §1
# BT-549 = conditions: Homo sapiens, single dose 10 µM, '-' = no inhibition, read-out: % Growth Inhibition
# How it was run: as §1
# M14 = conditions: Homo sapiens, single dose 10 µM, '-' = no inhibition, read-out: % Growth Inhibition
# How it was run: as §1
# SF-268 = conditions: Homo sapiens, single dose 10 µM, '-' = no inhibition, read-out: % Growth Inhibition
# How it was run: as §1
# MOLT-4 = conditions: Homo sapiens, single dose 10 µM, '-' = no inhibition, read-out: % Growth Inhibition
# How it was run: as §1
# UACC-257 = conditions: Homo sapiens, single dose 10 µM, '-' = no inhibition, read-out: % Growth Inhibition
# How it was run: as §1
# HOP-92 = conditions: Homo sapiens, single dose 10 µM, '-' = no inhibition, read-out: % Growth Inhibition
# How it was run: as §1
# A498 = conditions: Homo sapiens, single dose 10 µM, '-' = no inhibition, read-out: % Growth Inhibition
# How it was run: as §1
# SNB-75 = conditions: Homo sapiens, single dose 10 µM, '-' = no inhibition, read-out: % Growth Inhibition
# How it was run: as §1
# SK-OV-3 = conditions: Homo sapiens, single dose 10 µM, '-' = no inhibition, read-out: % Growth Inhibition
# How it was run: as §1
# NCI-H460 = conditions: Homo sapiens, single dose 10 µM, '-' = no inhibition, read-out: % Growth Inhibition
# How it was run: as §1
# HCT-116 = conditions: Homo sapiens, single dose 10 µM, '-' = no inhibition, read-out: % Growth Inhibition
# How it was run: as §1
# MDA-MB-435 = conditions: Homo sapiens, single dose 10 µM, '-' = no inhibition, read-out: % Growth Inhibition
# How it was run: as §1
# NCI/ADR-RES = conditions: Homo sapiens, single dose 10 µM, '-' = no inhibition, read-out: % Growth Inhibition
# How it was run: as §1
# SN12C = conditions: Homo sapiens, single dose 10 µM, '-' = no inhibition, read-out: % Growth Inhibition
# How it was run: as §1
# HOP-62 = conditions: Homo sapiens, single dose 10 µM, '-' = no inhibition, read-out: % Growth Inhibition
# How it was run: as §1
# 786-0 = conditions: Homo sapiens, single dose 10 µM, '-' = no inhibition, read-out: % Growth Inhibition
# How it was run: as §1
# SK-MEL-5 = conditions: Homo sapiens, single dose 10 µM, '-' = no inhibition, read-out: % Growth Inhibition
# How it was run: as §1
# SK-MEL-28 = conditions: Homo sapiens, single dose 10 µM, '-' = no inhibition, read-out: % Growth Inhibition
# How it was run: as §1
# CCRF-CEM = conditions: Homo sapiens, single dose 10 µM, '-' = no inhibition, read-out: % Growth Inhibition
# How it was run: as §1
# CAKI-1 = conditions: Homo sapiens, single dose 10 µM, '-' = no inhibition, read-out: % Growth Inhibition
# How it was run: as §1
smiles,measurement,setting,value
"COc1ccc(-c2cc(-c3cccc(OC)c3)nc(SC(C)C)n2)cc1 [Compound 19, 2-(Isopropylthio)-6-(3-methoxyphenyl)-4-(4-methoxyphenyl)pyrimidine]",inhibition at 10 µM,EKVX,22.7%
same,inhibition at 10 µM,T-47D,24.6%
same,inhibition at 10 µM,MCF7,11.6%
same,inhibition at 10 µM,UACC-62,25.5%
same,inhibition at 10 µM,KM12,5.72%
same,inhibition at 10 µM,OVCAR-5,0.61%
same,inhibition at 10 µM,HT29,32.5%
same,inhibition at 10 µM,SW-620,< 0%
same,inhibition at 10 µM,PC-3,17.2%
same,inhibition at 10 µM,NCI-H522,21%
same,inhibition at 10 µM,MDA-MB-468,20.2%
same,inhibition at 10 µM,HS 578T,4.95%
same,inhibition at 10 µM,A549/ATCC,15.9%
same,inhibition at 10 µM,HCT-15,24.5%
same,inhibition at 10 µM,HCC-2998,< 0%
same,inhibition at 10 µM,RXF 393,18.9%
same,inhibition at 10 µM,MALME-3M,< 0%
same,inhibition at 10 µM,UO-31,23.6%
same,inhibition at 10 µM,TK-10,< 0%
same,inhibition at 10 µM,SK-MEL-2,7.18%
same,inhibition at 10 µM,U251,10.2%
same,inhibition at 10 µM,IGROV1,< 0%
same,inhibition at 10 µM,OVCAR-3,< 0%
same,inhibition at 10 µM,SF-295,4.16%
same,inhibition at 10 µM,SNB-19,7.53%
same,inhibition at 10 µM,RPMI-8226,10.1%
same,inhibition at 10 µM,ACHN 1,< 0%
same,inhibition at 10 µM,SF-539,0.24%
same,inhibition at 10 µM,BT-549,6.85%
same,inhibition at 10 µM,M14,< 0%
same,inhibition at 10 µM,SF-268,9.81%
same,inhibition at 10 µM,MOLT-4,23.8%
same,inhibition at 10 µM,UACC-257,< 0%
same,inhibition at 10 µM,HOP-92,< 0%
same,inhibition at 10 µM,A498,< 0%
same,inhibition at 10 µM,SNB-75,< 0%
same,inhibition at 10 µM,SK-OV-3,< 0%
same,inhibition at 10 µM,NCI-H460,2.13%
same,inhibition at 10 µM,HCT-116,23.8%
same,inhibition at 10 µM,MDA-MB-435,3.92%
same,inhibition at 10 µM,NCI/ADR-RES,9.86%
same,inhibition at 10 µM,SN12C,18.5%
same,inhibition at 10 µM,HOP-62,< 0%
same,inhibition at 10 µM,786-0,4.09%
same,inhibition at 10 µM,SK-MEL-5,7.31%
same,inhibition at 10 µM,SK-MEL-28,< 0%
same,inhibition at 10 µM,CCRF-CEM,9.07%
same,inhibition at 10 µM,CAKI-1,24.1%
"C=CCSc1nc(-c2ccc(OC)cc2)cc(-c2cccc(OC)c2)n1 [Compound 20, 2-(Allylthio)-6-(3-methoxyphenyl)-4-(4-methoxyphenyl)pyrimidine]",inhibition at 10 µM,EKVX,4.8%
same,inhibition at 10 µM,T-47D,21.5%
same,inhibition at 10 µM,MCF7,12.5%
same,inhibition at 10 µM,UACC-62,18.8%
same,inhibition at 10 µM,KM12,< 0%
same,inhibition at 10 µM,OVCAR-5,< 0%
same,inhibition at 10 µM,HT29,8.08%
same,inhibition at 10 µM,SW-620,< 0%
same,inhibition at 10 µM,PC-3,< 0%
same,inhibition at 10 µM,NCI-H522,8.49%
same,inhibition at 10 µM,MDA-MB-468,1.99%
same,inhibition at 10 µM,HS 578T,< 0%
same,inhibition at 10 µM,A549/ATCC,1.93%
same,inhibition at 10 µM,HCT-15,5.58%
same,inhibition at 10 µM,HCC-2998,2.37%
same,inhibition at 10 µM,RXF 393,< 0%
same,inhibition at 10 µM,MALME-3M,< 0%
same,inhibition at 10 µM,UO-31,13.2%
same,inhibition at 10 µM,TK-10,< 0%
same,inhibition at 10 µM,SK-MEL-2,< 0%
same,inhibition at 10 µM,U251,< 0%
same,inhibition at 10 µM,IGROV1,< 0%
same,inhibition at 10 µM,OVCAR-3,< 0%
same,inhibition at 10 µM,SF-295,3.19%
same,inhibition at 10 µM,SNB-19,5.77%
same,inhibition at 10 µM,RPMI-8226,4.53%
same,inhibition at 10 µM,ACHN 1,< 0%
same,inhibition at 10 µM,SF-539,< 0%
same,inhibition at 10 µM,BT-549,< 0%
same,inhibition at 10 µM,M14,4.9%
same,inhibition at 10 µM,SF-268,< 0%
same,inhibition at 10 µM,MOLT-4,12.5%
same,inhibition at 10 µM,UACC-257,< 0%
same,inhibition at 10 µM,HOP-92,< 0%
same,inhibition at 10 µM,A498,< 0%
same,inhibition at 10 µM,SNB-75,< 0%
same,inhibition at 10 µM,SK-OV-3,< 0%
same,inhibition at 10 µM,NCI-H460,< 0%
same,inhibition at 10 µM,HCT-116,5.47%
same,inhibition at 10 µM,MDA-MB-435,1.82%
same,inhibition at 10 µM,NCI/ADR-RES,< 0%
same,inhibition at 10 µM,SN12C,6.16%
same,inhibition at 10 µM,HOP-62,< 0%
same,inhibition at 10 µM,786-0,< 0%
same,inhibition at 10 µM,SK-MEL-5,1.41%
same,inhibition at 10 µM,SK-MEL-28,< 0%
same,inhibition at 10 µM,CCRF-CEM,3.61%
same,inhibition at 10 µM,CAKI-1,7.19%
